Measured values as given in ChEMBL document CHEMBL1201862, “PubChem BioAssay data set” (2004).
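Interpolation was linear, between the two tested concentrations surrounding the appropriate level; five concentrations were tested over 48 hours in 96-well plates. GI50 = concentration required for 50% inhibition of growth.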 Calls of active or inactive are those of the source. No stated cut-off is given here; in the data, active = GI50 up to about 1.1 µM and inactive = higher.

Columns and labels:
Experiment in all cases: NCI anticancer screen, dose series, 48 h
786-0 = tested on: 786-0
CAKI-1 = tested on: CAKI-1
HCC 2998 = tested on: HCC 2998
HCT-116 = tested on: HCT-116
HL-60 = tested on: HL-60
IGROV-1 = tested on: IGROV-1
LOX IMVI = tested on: LOX IMVI
NCI-H23 = tested on: NCI-H23
NCI-H460 = tested on: NCI-H460
NCI/ADR-RES = tested on: NCI/ADR-RES
OVCAR-3 = tested on: OVCAR-3
OVCAR-4 = tested on: OVCAR-4
RPMI-8226 = tested on: RPMI-8226
RXF 393 = tested on: RXF 393
SF-268 = tested on: SF-268
SK-MEL-28 = tested on: SK-MEL-28
SK-MEL-2 = tested on: SK-MEL-2
SNB-19 = tested on: SNB-19
SNB-75 = tested on: SNB-75
SR = tested on: SR

SMILES	GI50 (786-0)	GI50 (CAKI-1)	GI50 (HCC 2998)	GI50 (HCT-116)	GI50 (HL-60)	GI50 (IGROV-1)	GI50 (LOX IMVI)	GI50 (NCI-H23)	GI50 (NCI-H460)	GI50 (NCI/ADR-RES)	GI50 (OVCAR-3)	GI50 (OVCAR-4)	GI50 (RPMI-8226)	GI50 (RXF 393)	GI50 (SF-268)	GI50 (SK-MEL-28)	GI50 (SK-MEL-2)	GI50 (SNB-19)	GI50 (SNB-75)	GI50 (SR)
CCC1CN2CCc3cc(OC)c(OC)cc3C2CC1CC1c2cc(OC)c(OC)cc2CCN1C(=O)C(Cc1c[nH]c2ccccc12)NC(=O)OC(C)(C)C (configuration not stated)	2.61 µM (inactive)	6.84 µM (inactive)	2.63 µM (inactive)	1.6 µM (inactive)	2.03 µM (inactive)	1.73 µM (inactive)	1.88 µM (inactive)	7.67 µM (inactive)	2.39 µM (inactive)	1.63 µM (inactive)	3.3 µM (inactive)	1.7 µM (inactive)	2.52 µM (inactive)	2.67 µM (inactive)	5.4 µM (inactive)	1.98 µM (inactive)	2.67 µM (inactive)	7.59 µM (inactive)	2.59 µM (inactive)	1.73 µM (inactive)
N#CC(C#N)SCc1ccccc1	15.7 µM (inactive)	17.7 µM (inactive)	61.2 µM (inactive)	6.55 µM (inactive)	4.44 µM (inactive)	23.1 µM (inactive)	5.11 µM (inactive)	10.5 µM (inactive)	14.7 µM (inactive)	6.64 µM (inactive)	23.8 µM (inactive)	23.7 µM (inactive)	6.18 µM (inactive)	26.8 µM (inactive)	29.4 µM (inactive)	36.2 µM (inactive)	7.36 µM (inactive)	21 µM (inactive)	38 µM (inactive)	1.11 µM (active)
Cc1ccc([S+]([O-])c2sccc2C=O)cc1 (configuration not stated)	32.1 µM (inactive)	> 100 µM (inactive)	32.7 µM (inactive)	16.4 µM (inactive)	21 µM (inactive)	22.6 µM (inactive)	14.4 µM (inactive)	30.8 µM (inactive)	21.9 µM (inactive)	26.5 µM (inactive)	> 10 µM (inactive)	29 µM (inactive)	31 µM (inactive)	56.9 µM (inactive)	28.8 µM (inactive)	29.2 µM (inactive)	43.6 µM (inactive)	> 100 µM (inactive)	33.9 µM (inactive)	31.8 µM (inactive)
CC1CC(=O)N2CCCNC2=C1C#N (configuration not stated)	> 100 µM (inactive)	> 100 µM (inactive)	> 100 µM (inactive)	> 100 µM (inactive)	> 10 µM (inactive)	> 100 µM (inactive)	> 100 µM (inactive)	> 100 µM (inactive)	> 100 µM (inactive)	> 100 µM (inactive)	> 100 µM (inactive)	> 100 µM (inactive)	> 100 µM (inactive)	> 100 µM (inactive)	> 100 µM (inactive)	> 100 µM (inactive)	> 100 µM (inactive)	> 100 µM (inactive)	> 100 µM (inactive)	> 100 µM (inactive)
CP(C)(=S)P(C)(C)=S	> 100 µM (inactive)	> 100 µM (inactive)	> 100 µM (inactive)	> 100 µM (inactive)	> 100 µM (inactive)	78.5 µM (inactive)	4.37 µM (inactive)	> 100 µM (inactive)	> 100 µM (inactive)	> 100 µM (inactive)	–	> 100 µM (inactive)	> 100 µM (inactive)	> 100 µM (inactive)	> 100 µM (inactive)	> 100 µM (inactive)	> 100 µM (inactive)	> 100 µM (inactive)	> 100 µM (inactive)	> 100 µM (inactive)
COc1c(/C=C/C=O)cc2c(c1OC)OCO2	54.1 µM (inactive)	5.21 µM (inactive)	29.4 µM (inactive)	34 µM (inactive)	23.6 µM (inactive)	22.8 µM (inactive)	24.5 µM (inactive)	30.4 µM (inactive)	14.7 µM (inactive)	33.3 µM (inactive)	33.2 µM (inactive)	16.6 µM (inactive)	14.3 µM (inactive)	> 100 µM (inactive)	41.1 µM (inactive)	> 100 µM (inactive)	23.4 µM (inactive)	16.4 µM (inactive)	> 100 µM (inactive)	12.9 µM (inactive)
COc1c2c(nc3ccccc13)-c1cc(C(CC(=O)OC(C)(C)C)C(=O)OC(C)C)c(CO)c(=O)n1C2 (configuration not stated)	30.5 µM (inactive)	4.22 µM (inactive)	> 100 µM (inactive)	37 µM (inactive)	> 25.2 µM (inactive)	47.4 µM (inactive)	32.4 µM (inactive)	55.7 µM (inactive)	10.4 µM (inactive)	24.5 µM (inactive)	> 100 µM (inactive)	> 70.5 µM (inactive)	21.3 µM (inactive)	> 100 µM (inactive)	> 62.8 µM (inactive)	> 73.8 µM (inactive)	> 100 µM (inactive)	53.8 µM (inactive)	> 93.8 µM (inactive)	5.62 µM (inactive)
N#Cc1c(C#N)c(-c2ccccc2)n(Cc2ccccc2)c1N	35 µM (inactive)	> 100 µM (inactive)	> 100 µM (inactive)	> 100 µM (inactive)	> 100 µM (inactive)	> 100 µM (inactive)	> 100 µM (inactive)	> 100 µM (inactive)	–	> 100 µM (inactive)	> 100 µM (inactive)	> 100 µM (inactive)	> 100 µM (inactive)	48.6 µM (inactive)	47.2 µM (inactive)	–	> 100 µM (inactive)	29.6 µM (inactive)	14.4 µM (inactive)	> 100 µM (inactive)
COc1cc(/C=C2\C[C@H]3[C@@H]4CC=C5C[C@@H](OC(C)=O)CC[C@]5(C)[C@H]4CC[C@]3(C)\C2=N\O)cc(OC)c1OC	5.08 µM (inactive)	3.33 µM (inactive)	16 µM (inactive)	4.53 µM (inactive)	2.88 µM (inactive)	10 µM (inactive)	4.32 µM (inactive)	5.7 µM (inactive)	4.08 µM (inactive)	3.78 µM (inactive)	6.27 µM (inactive)	3.37 µM (inactive)	0.56 µM (active)	0.942 µM (active)	7.82 µM (inactive)	5.58 µM (inactive)	7.01 µM (inactive)	29.9 µM (inactive)	2.5 µM (inactive)	3.58 µM (inactive)
CCCCCOc1ccc(NC2=C(Cl)C(=O)c3c(O)ccc(O)c3C2=O)cc1	1.6 µM (inactive)	> 10 µM (inactive)	2.65 µM (inactive)	2.88 µM (inactive)	1.37 µM (inactive)	> 10 µM (inactive)	1.79 µM (inactive)	3.27 µM (inactive)	4.13 µM (inactive)	6.04 µM (inactive)	4.2 µM (inactive)	5.12 µM (inactive)	2.43 µM (inactive)	4.71 µM (inactive)	> 10 µM (inactive)	2.84 µM (inactive)	> 10 µM (inactive)	7.87 µM (inactive)	> 10 µM (inactive)	2.36 µM (inactive)
COC(=O)c1cc(/C=C/C(=O)Cc2ccccc2)cn1S(=O)(=O)c1ccccc1	> 100 µM (inactive)	> 100 µM (inactive)	> 100 µM (inactive)	> 100 µM (inactive)	> 100 µM (inactive)	> 100 µM (inactive)	> 100 µM (inactive)	> 100 µM (inactive)	> 100 µM (inactive)	> 100 µM (inactive)	> 100 µM (inactive)	> 100 µM (inactive)	–	> 100 µM (inactive)	> 100 µM (inactive)	–	> 100 µM (inactive)	> 100 µM (inactive)	> 100 µM (inactive)	> 100 µM (inactive)
CC(=O)OC[C@@]12Cc3ccc(C)c(O)c3[C@]1(C)[C@@H](OC(C)=O)[C@]1(O)[C@H]([C@@H](OC(=O)c3ccccc3)[C@@H](C)[C@H]1OC(C)=O)[C@H]2OC(C)=O	> 50 µM (inactive)	> 50 µM (inactive)	22 µM (inactive)	> 50 µM (inactive)	44.9 µM (inactive)	> 50 µM (inactive)	> 50 µM (inactive)	> 50 µM (inactive)	> 50 µM (inactive)	> 50 µM (inactive)	> 50 µM (inactive)	> 50 µM (inactive)	–	> 50 µM (inactive)	> 50 µM (inactive)	–	> 50 µM (inactive)	> 50 µM (inactive)	16.4 µM (inactive)	> 50 µM (inactive)
Nc1nc(Cl)cc(NC2(CO)CCC2)n1	> 100 µM (inactive)	89.5 µM (inactive)	> 100 µM (inactive)	> 100 µM (inactive)	> 100 µM (inactive)	> 100 µM (inactive)	> 100 µM (inactive)	> 100 µM (inactive)	> 100 µM (inactive)	> 100 µM (inactive)	> 100 µM (inactive)	> 100 µM (inactive)	> 100 µM (inactive)	> 100 µM (inactive)	> 100 µM (inactive)	> 100 µM (inactive)	> 100 µM (inactive)	–	> 100 µM (inactive)	> 100 µM (inactive)
Cc1ccc(S(=O)(=O)NC(CO)C(=O)O)cc1 (configuration not stated)	> 100 µM (inactive)	> 100 µM (inactive)	> 100 µM (inactive)	> 100 µM (inactive)	> 100 µM (inactive)	> 100 µM (inactive)	> 100 µM (inactive)	> 100 µM (inactive)	> 100 µM (inactive)	> 100 µM (inactive)	> 100 µM (inactive)	> 100 µM (inactive)	> 100 µM (inactive)	> 100 µM (inactive)	> 100 µM (inactive)	> 100 µM (inactive)	> 100 µM (inactive)	> 100 µM (inactive)	> 100 µM (inactive)	> 100 µM (inactive)
